Publication PMC11351612, “Heteronuclear Complexes with Promising Anticancer Activity against Colon Cancer” (Biomedicines, 2024)

Experiments:
[1] = Solution stability by UV-vis in PBS; assay type: physicochemical; settings: PBS pH 7.4, 37 °C; for Stability under physiological conditions (UV-vis spectrum over time): 24 h
Experimental: Solution chemistry. The stability of the dinuclear derivatives was analysed by absorption UV-vis spectroscopy. UV-vis absorption spectra of the complexes were recorded on a Thermo Scientific spectrophotometer. Solutions of the complexes (5 × 10^−5 M) in PBS (pH = 7.4) were prepared from 20 mM DMSO stock solutions and thereafter monitored over 24 h at 37 °C, measuring the electronic spectra.
The solution stability of the new heterometallic compounds was determined under physiological conditions. To simulate conditions similar to those in cell culture and the body, the compounds were dissolved in a phosphate-buffered saline solution (PBS) with a pH of 7.4 and then incubated at 37 °C. The UV spectra of each complex were recorded at different time intervals (Figure S14). Qualitative determination of the stability of the compounds under such conditions was achieved by comparing the spectra obtained at each time point.

[2] = biological target: T1, bovine serum albumin (BSA) (Bos taurus, UniProt P02769); experiment: BSA fluorescence quenching (Stern-Volmer); assay type: binding; settings: [BSA] = 50 μM, complex 0-30 μM, 298 K; for Stern-Volmer quenching constant KSV: λexc 295 nm
T1 construct: purchased Sigma Aldrich (St. Louis, MO, USA)
Experimental: Interaction with bovine serum albumin. BSA was purchased from Sigma Aldrich (St. Louis, MO, USA). A 2 mM stock solution of BSA was prepared by dissolving the commercial powder in PBS at pH 7.4. Afterwards, the real concentration was confirmed using UV-vis spectroscopy (ε280 nm = 43,824 M^−1cm^−1). The heteronuclear complexes were dissolved in DMSO to achieve 6 mM stock solutions, and six aliquots of 2.5 μL were added to a 50 μM solution of BSA in PBS placed in a quartz cuvette of 1 cm optical path. The final concentrations of the complexes in the cuvette were 0, 5, 10, 15, 20, 25, and 30 μM. The fluorescence spectra were recorded on a Jobin-Yvon-Horiba fluorolog FL-3-11 spectrometer. The samples were excited at 295 nm and the emission spectra were recorded in a range from 310 to 450 nm.
The samples were measured 4 min after every addition of the aliquots of the complexes. The fluorescence intensities of the PBS and the complexes were irrelevant under the described conditions. The data were analysed using the Stern–Volmer equation F0/F = 1 + KSV [gold complex] = 1 + Kqτ0[complex] to obtain the Stern–Volmer quenching constant (KSV) and the quenching rate constant (Kq). The binding constant (Kb) was quantified by using the Stern–Volmer equation: log {(F0 − F)/F} = log Kb + n log [complex].
We have carried out fluorescence and UV-Vis spectroscopic experiments to study the affinity of [Cu{Au(Spy)(PTA)}2]PF6 (1) and [Zn{Au(PTA)(Spy)}2](NO3)2 (2) for albumin. These experiments are based on the quenching of the intrinsic tryptophan fluorescence emission undergone by BSA in the presence of increasing concentrations of the trinuclear complexes, which act as quenchers. The intrinsic fluorescence of BSA is susceptible to alterations in its local environment, and the binding or simple electrostatic interaction of molecules can result in modifications to its emission spectrum. Fluorescence quenching experiments have been carried out, observing the emission of tryptophan at 341 nm upon excitation at 295 nm and increasing concentrations of compounds 2 and 3 with BSA. […] The addition of increasing amounts of the complexes to a BSA solution results in a significant reduction in fluorescence intensity without any shift in the emission maximum. The fluorescence data have been analysed using the Stern–Volmer equation so that the binding of the complexes to BSA and the consequent quenching of the emission can be quantified (Table 3). The corresponding plot F0/F versus [complex] (F and F0 are the corresponding intensities in the presence and the absence of the quencher agent) gives a linear plot in both cases (Figure 1B), characteristic of the presence of a single mechanism of quenching, either static or dynamic. […]

[3] = Distribution coefficient (logP7.4), n-octanol-water shake-flask; assay type: physicochemical; settings: n-octanol / buffered saline pH 7.4, shake-flask
Experimental: Distribution coefficient (logP7.4). The n-octanol-water coefficients of the complexes were determined using a shake-flask method, as previously reported. Briefly, buffered-saline distilled water (100 mL, phosphate buffer [PO4^3−] = 10 mM, [NaCl] = 0.15 M, pH 7.4) and n-octanol (100 mL) were shaken together for 72 h to allow for saturation of both phases. Approximately 1 mg of the complexes was dissolved in 5 mL of the aqueous phase and 5 mL of the organic phase was added, mixing them for 10 min. The resulting emulsion was centrifuged to separate the phases. The concentration of the compounds in each phase was determined using UV-vis absorbance spectroscopy. The logP7.4 was defined as log{[compound(organic)]/[compound(aqueous)]}.

Caco-2/PD7 cells = experiment: MTT cell proliferation assay, Caco-2/PD7; assay type: cell-based, human; settings: for Cytotoxic activity compared with mononuclear precursor [Au(Spy)(PTA)] (fold): Caco-2 PD7 and TC7 clones, ratio of IC50; for IC50: MTT, 72 h, mean ± SE of at least three determinations
Experimental: Cell culture. Human colon cancer Caco-2 cells (PD7 and TC7 clones) were kindly provided by Dr. Edith Brot-Laroche (Université Pierre et Marie Curie-Paris 6, UMR S 872, Les Cordeliers, Lyon, France) and grown in Dulbecco’s Modified Eagles medium (DMEM) (Gibco Invitrogen, Paisley, UK) supplemented with 20% foetal bovine serum (FBS), 1% non-essential amino acids, 1% streptomycin (1000 μg/mL), 1% penicillin (1000 μg/mL), and 1% amphotericin (250 U/mL). Caco-2 cells were maintained at 37 °C in a humidified atmosphere at 5% CO2.
Cell proliferation assay. Cell proliferation was measured using the 3-(4,5-dimethyl-2-thiazoyl)-2,5-diphenyltetrazolium bromide (MTT) assay, as previously described. Caco-2/TC7 cells were seeded in a 96-well plate at a density of 4000 cells/well and grown for 24 h before being treated with each complex or DMSO (used as control). After 72 h of incubation with the complexes, 10 μL of MTT (5 mg/mL) were added and incubation was continued at 37 °C for 3 h. Inversion removed the medium and 100 μL of DMSO were added to each well. Absorbance at 560 nm, proportional to many living cells, was measured by spectrophotometry (SPECTROstar Nano, BMG LABTECH, Ortenberg, Germany) and converted into a percentage (%) of growth inhibition.
The antiproliferative effects of the mononuclear and heteropolinuclear complexes were tested on two different Caco-2 cancer cell lines (PD7 and […]). […] Caco-2 cells of both PD7 and TC7 clones were exposed to increasing concentrations of the assayed compounds through dose–response/cell viability analysis. The results in terms of the IC50 parameter (Table 4) were obtained by using the MTT protocol.

T1 sequence (P02769 25-607): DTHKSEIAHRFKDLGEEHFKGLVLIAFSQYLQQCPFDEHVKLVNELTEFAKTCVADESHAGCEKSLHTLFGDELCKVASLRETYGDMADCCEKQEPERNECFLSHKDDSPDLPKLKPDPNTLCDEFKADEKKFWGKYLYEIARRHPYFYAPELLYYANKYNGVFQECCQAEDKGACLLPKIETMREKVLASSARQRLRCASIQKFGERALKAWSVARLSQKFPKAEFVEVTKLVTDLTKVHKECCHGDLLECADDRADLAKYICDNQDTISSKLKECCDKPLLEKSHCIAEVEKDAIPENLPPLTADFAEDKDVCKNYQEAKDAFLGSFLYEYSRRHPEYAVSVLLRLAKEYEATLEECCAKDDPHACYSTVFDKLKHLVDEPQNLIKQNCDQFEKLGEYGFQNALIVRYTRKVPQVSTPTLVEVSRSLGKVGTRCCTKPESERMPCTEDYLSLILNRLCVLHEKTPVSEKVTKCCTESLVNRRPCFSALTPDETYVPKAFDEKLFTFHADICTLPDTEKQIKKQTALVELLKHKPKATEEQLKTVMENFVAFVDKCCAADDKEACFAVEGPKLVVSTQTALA

Substance	Solubility in PBS (qualitative) [1]	Stability under physiological conditions (UV-vis spectrum over time) [1]	number of binding sites n [2]	Stern-Volmer quenching constant KSV [2]	logP [3]	Cytotoxic activity compared with mononuclear precursor [Au(Spy)(PTA)] (fold) (Caco-2/PD7 cells)	IC50 (Caco-2/PD7 cells)	Cytotoxic activity compared with mononuclear precursor [Au(Spy)(PTA)] (fold) (Caco-2/PD7 cells; listed as Au2Cu compound (2))
[Zn{Au(PTA)(Spy)}2](NO3)2 [compound 2]	highly soluble	remained unaltered for a period of 24 h	0.95	1760 M⁻¹	0.47	slight improvement	2.18 ± 0.24 µM	–
[Cu{Au(Spy)(PTA)}2]PF6 [compound 1]	reduced solubility in PBS	notable stability	1.11	5730 M⁻¹	0.84	–	0.16 ± 0.02 µM	15
